Experimental data from patent US6878701B2, “Potassium channel blocking agents” (Neurosearch A/S, priority 1999, dated 2005).

Biological target: T1, small-conductance Ca2+-activated K+ channels (SK channels, isoform 2) (Rattus norvegicus, UniProt P70604)
T1 construct: expressed in transfected cells; host or cells: HEK293
Assay: Whole-cell patch-clamp recording of SK channel current in stably transfected HEK293 cells
Type: cell-based
Settings: rat SK2 stably expressed in HEK293 cells, room temperature, IC50 = Koff/Kon from kinetics of the block, read-out: biological activity determined as IC50
Experimental: In this experiment. small-conductance Ca^2+-activated K^+ channels (SK channels, isoform 2) cloned from a rat cDNA library were stably expressed in HEK293 cells using standard procedures. The ionic current through the channels was recorded in the whole-cell mode of the patch-clamp technique.
Cells plated on coverstips are placed in a 15 μl perfusion chamber (flowrate ˜1 ml/min), mounted on a IMT-2 microscope equipped with Nomarski or Hoffmann optics. The microscopes are placed on vibration-free tables in grounded Faraday cages.
All experiments are performed at room temperature (20-22° C.). […] Data are stored directly on the harddisk and analysed by the IGOR software according to the manufacturer's instructions.
The whole-cell configuration of the patch clamp technique is applied. […] Cell capacitance is electronically compensated and the resistance between the pipette and the cell interior (the series resistance, Rs) is measured and compensated for. […]
In the experiments where the effect of channel activators is quantified (test 475), the intracellular (pipette) solution has the following composition (concentration in mM):
The calculated free concentration of Ca^2+ in this solution is 100 nM, and that of Mg^2+ is 1 mM. In these experiments, the concentration of CaCl2 is 7.6 mM and that of MgCl2 is 1.2 mM to give calculated free concentrations of 300 nM and 1 mM, respectively. […]

Compound: CN1CCN(C)c2nc(c3ccccc3n2)NCC2CCCC(CNc3nc1nc1ccccc31)C2 [Compound 2, 20,23-dimethyl-2,10,18,20,23,25,32,33-octaazahexacyclo [22.7.1.1^4.8.1^11,19.0^12,17.0^26,31] tetratriaconta-1(32).11,13,15,17,19(33),24,26,28,30-decaene]
- IC50: < 1000 nM
